In brackets after ≈: the same amount, converted by molar mass.
Tests used:
Escherichia coli [1] = experiment: microbe, parasite or virus in culture
Description: In vitro minimum inhibitory concentration against Escherichia coli (DC0 parent organism).

Enterobacter cloacae [2] = experiment: microbe, parasite or virus in culture
Description: Minimum inhibitory concentration in Enterobacter cloacae, P99- inducible type 1 lactamase producer

Enterobacter cloacae [3] = experiment: microbe, parasite or virus in culture; remark: listed apart in the source
Description: Minimum inhibitory concentration in Enterobacter cloacae, DR 401108 constitutive depressed type 1 lactamase producer

Citrobacter freundii [4] = experiment: microbe, parasite or virus in culture
Description: Minimum inhibitory concentration in Citrobacter freundii, I+382010 inducible type 1 lactamase producer

Staphylococcus aureus [5] = experiment: The compound was tested for minimum inhibitory concentration in Staphylococcus aureus,147N penicillin sensitive Staphylococcus aureus; assay type: functional
Staphylococcus aureus [6] = experiment: The compound was tested for minimum inhibitory concentration in Staphylococcus aureus Oxford penicillin sensitive Staphylococcus aureus; assay type: functional
Enterobacter cloacae [7] = experiment: microbe, parasite or virus in culture; remark: listed apart in the source
Description: Minimum inhibitory concentration in Enterobacter cloacae, P99+ constitutive depressed type 1 lactamase producer

Providencia stuartii [8] = experiment: microbe, parasite or virus in culture
Description: Minimum inhibitory concentration in Pseudomonas stuartii, DR 442049 constitutive depressed type 1 lactamase producer

Providencia stuartii [9] = experiment: microbe, parasite or virus in culture; remark: listed apart in the source
Description: Minimum inhibitory concentration in Pseudomonas stuartii, I+442019 inducible type 1 lactamase producer

Citrobacter freundii [10] = experiment: microbe, parasite or virus in culture; remark: listed apart in the source
Description: Minimum inhibitory concentration in Citrobacter freundii, DR 382031 constitutive depressed type 1

Pseudomonas aeruginosa [11] = experiment: microbe, parasite or virus in culture
Description: Minimum inhibitory concentration in Pseudomonas aeruginosa,799/61 permeability mutant

Enterobacter cloacae [12] = experiment: microbe, parasite or virus in culture; remark: listed apart in the source
Description: Minimum inhibitory concentration in Enterobacter cloacae, I+401029 inducible type 1 lactamase producer

Pseudomonas aeruginosa [13] = experiment: microbe, parasite or virus in culture; remark: listed apart in the source
Description: Minimum inhibitory concentration in Pseudomonas aeruginosa,799WT parent organism

Pseudomonas aeruginosa [14] = experiment: microbe, parasite or virus in culture; remark: listed apart in the source
Description: Minimum inhibitory concentration in Pseudomonas aeruginosa, 18SH constitutive depressed type 1 lactamase producer

Escherichia coli [15] = experiment: microbe, parasite or virus in culture; remark: listed apart in the source
Description: In vitro minimum inhibitory concentration against Escherichia coli (DC2 permeability mutant).

Pseudomonas aeruginosa [16] = experiment: microbe, parasite or virus in culture; remark: listed apart in the source
Description: Minimum inhibitory concentration in Pseudomonas aeruginosa, 18S inducible type 1 lactamase producer

Pseudomonas aeruginosa [17] = experiment: microbe, parasite or virus in culture; remark: listed apart in the source
Description: In vitro minimum inhibitory concentration against Pseudomonas aeruginosa (PU21).

Staphylococcus aureus [18] = experiment: microbe, parasite or virus in culture
Staphylococcus aureus [19] = experiment: microbe, parasite or virus in culture; remark: listed apart in the source
[20] = The compound was evaluated for area under the curve in marmosets; assay type: ADME; conditions: callithrix, in vivo
[21] = The half life period in marmosets; assay type: ADME; conditions: callithrix, in vivo

Description for physchem: The dissociation constant of compound was tested for beta-Lactamase stability

CC(C)(O/N=C(\C(=O)N[C@@H]1C(=O)N2C(C(=O)O)=C(CCCC(=O)c3cc(O)c(O)c(Cl)c3)CSC12)c1csc(N)n1)C(=O)O (stereo partly specified)
MIC (Escherichia coli [1]): 0.008 µg/mL (≈ 0.012 µM) | MIC (Enterobacter cloacae [2]): 0.03 µg/mL (≈ 0.0449 µM) | MIC (Enterobacter cloacae [3]): > 32 µg/mL | MIC (Citrobacter freundii [4]): 0.008 µg/mL (≈ 0.012 µM) | MIC (Staphylococcus aureus [5]): 16 µg/mL (≈ 23.9 µM) | MIC (Staphylococcus aureus [6]): 16 µg/mL (≈ 23.9 µM) | MIC (Enterobacter cloacae [7]): 1 µg/mL (≈ 1.5 µM) | MIC (Providencia stuartii [8]): 1 µg/mL (≈ 1.5 µM) | MIC (Providencia stuartii [9]): 0.03 µg/mL (≈ 0.0449 µM) | MIC (Citrobacter freundii [10]): 2 µg/mL (≈ 2.99 µM) | MIC (Pseudomonas aeruginosa [11]): 0.008 µg/mL (≈ 0.012 µM) | MIC (Enterobacter cloacae [12]): 0.03 µg/mL (≈ 0.0449 µM) | MIC (Pseudomonas aeruginosa [13]): 0.008 µg/mL (≈ 0.012 µM) | MIC (Pseudomonas aeruginosa [14]): 0.015 µg/mL (≈ 0.0225 µM) | MIC (Escherichia coli [15]): 0.008 µg/mL (≈ 0.012 µM) | MIC (Pseudomonas aeruginosa [16]): 0.008 µg/mL (≈ 0.012 µM) | MIC (Pseudomonas aeruginosa [17]): 0.015 µg/mL (≈ 0.0225 µM)

CCOC(=O)C(CC1=C(C(=O)O)N2C(=O)[C@@H](NC(=O)/C(=N\OC(C)(C)C(=O)O)c3csc(N)n3)C2SC1)C(=O)c1cc(O)c(O)c(Br)c1 (stereo partly specified)
MIC (Enterobacter cloacae [2]): 0.125 µg/mL (≈ 0.162 µM) | MIC (Enterobacter cloacae [3]): 0.25 µg/mL (≈ 0.324 µM) | MIC (Citrobacter freundii [4]): 0.008 µg/mL (≈ 0.0104 µM) | MIC (Enterobacter cloacae [7]): 0.25 µg/mL (≈ 0.324 µM) | MIC (Providencia stuartii [8]): 0.5 µg/mL (≈ 0.649 µM) | MIC (Providencia stuartii [9]): 0.125 µg/mL (≈ 0.162 µM) | MIC (Citrobacter freundii [10]): 0.25 µg/mL (≈ 0.324 µM) | MIC (Pseudomonas aeruginosa [11]): 0.008 µg/mL (≈ 0.0104 µM) | MIC (Enterobacter cloacae [12]): 0.03 µg/mL (≈ 0.0389 µM) | MIC (Pseudomonas aeruginosa [13]): 0.008 µg/mL (≈ 0.0104 µM) | MIC (Pseudomonas aeruginosa [14]): 0.008 µg/mL (≈ 0.0104 µM) | MIC (Pseudomonas aeruginosa [16]): 0.008 µg/mL (≈ 0.0104 µM)

CCN(CC1=C(C(=O)O)N2C(=O)[C@@H](NC(=O)/C(=N\OC(C)(C)C(=O)O)c3csc(N)n3)C2SC1)C(=O)c1cc(O)c(O)c(C#N)c1 (stereo partly specified)
MIC (Enterobacter cloacae [2]): 0.06 µg/mL (≈ 0.0891 µM) | MIC (Enterobacter cloacae [3]): 1 µg/mL (≈ 1.48 µM) | MIC (Citrobacter freundii [4]): 0.008 µg/mL (≈ 0.0119 µM) | MIC (Enterobacter cloacae [7]): 1 µg/mL (≈ 1.48 µM) | MIC (Providencia stuartii [8]): 16 µg/mL (≈ 23.7 µM) | MIC (Providencia stuartii [9]): 0.25 µg/mL (≈ 0.371 µM) | MIC (Citrobacter freundii [10]): 1 µg/mL (≈ 1.48 µM) | MIC (Pseudomonas aeruginosa [11]): 0.008 µg/mL (≈ 0.0119 µM) | MIC (Enterobacter cloacae [12]): 0.015 µg/mL (≈ 0.0223 µM) | MIC (Pseudomonas aeruginosa [13]): 0.008 µg/mL (≈ 0.0119 µM) | MIC (Pseudomonas aeruginosa [14]): 0.125 µg/mL (≈ 0.186 µM) | MIC (Pseudomonas aeruginosa [16]): 0.008 µg/mL (≈ 0.0119 µM)

CC(C)(O/N=C(/C(=O)N[C@@H]1C(=O)N2C(C(=O)O)=C(COC(=O)c3ccc(O)c(O)c3)CSC12)c1csc(N)n1)C(=O)O (stereo partly specified)
MIC (Escherichia coli [1]): 0.008 µg/mL (≈ 0.0129 µM) | MIC (Enterobacter cloacae [2]): 0.5 µg/mL (≈ 0.804 µM) | MIC (Enterobacter cloacae [3]): > 128 µg/mL | MIC (Citrobacter freundii [4]): 0.03 µg/mL (≈ 0.0483 µM) | MIC (Enterobacter cloacae [7]): 4 µg/mL (≈ 6.43 µM) | MIC (Providencia stuartii [8]): 4 µg/mL (≈ 6.43 µM) | MIC (Providencia stuartii [9]): 0.125 µg/mL (≈ 0.201 µM) | MIC (Citrobacter freundii [10]): 8 µg/mL (≈ 12.9 µM) | MIC (Pseudomonas aeruginosa [11]): 0.008 µg/mL (≈ 0.0129 µM) | MIC (Staphylococcus aureus [18]): 8 µg/mL (≈ 12.9 µM) | MIC (Enterobacter cloacae [12]): 0.06 µg/mL (≈ 0.0965 µM) | MIC (Pseudomonas aeruginosa [13]): 0.008 µg/mL (≈ 0.0129 µM) | MIC (Pseudomonas aeruginosa [14]): 0.125 µg/mL (≈ 0.201 µM) | MIC (Escherichia coli [15]): 0.008 µg/mL (≈ 0.0129 µM) | MIC (Pseudomonas aeruginosa [16]): 0.008 µg/mL (≈ 0.0129 µM) | MIC (Pseudomonas aeruginosa [17]): 0.3 µg/mL (≈ 0.483 µM) | MIC (Staphylococcus aureus [19]): 4 µg/mL (≈ 6.43 µM)

CCN(CC1=C(C(=O)O)N2C(=O)[C@@H](NC(=O)/C(=N\OC(C)(C)C(=O)O)c3csc(N)n3)C2SC1)C(=O)c1cc(O)c(O)c(Cl)c1 (stereo partly specified)
MIC (Enterobacter cloacae [2]): 0.125 µg/mL (≈ 0.183 µM) | MIC (Enterobacter cloacae [3]): 1 µg/mL (≈ 1.46 µM) | MIC (Citrobacter freundii [4]): 0.008 µg/mL (≈ 0.0117 µM) | MIC (Enterobacter cloacae [7]): 1 µg/mL (≈ 1.46 µM) | AUC [20]: 16.4 mg/h/L | MIC (Providencia stuartii [8]): 8 µg/mL (≈ 11.7 µM) | pKa (physchem): 7.4 | MIC (Providencia stuartii [9]): 0.25 µg/mL (≈ 0.366 µM) | MIC (Citrobacter freundii [10]): 1 µg/mL (≈ 1.46 µM) | MIC (Pseudomonas aeruginosa [11]): 0.008 µg/mL (≈ 0.0117 µM) | half-life [21]: 52.2 min | MIC (Enterobacter cloacae [12]): 0.015 µg/mL (≈ 0.022 µM) | MIC (Pseudomonas aeruginosa [13]): 0.008 µg/mL (≈ 0.0117 µM) | MIC (Pseudomonas aeruginosa [14]): 0.06 µg/mL (≈ 0.0878 µM) | MIC (Pseudomonas aeruginosa [16]): 0.008 µg/mL (≈ 0.0117 µM)

CC(=O)Oc1ccc(C(=O)OCC2=C(C(=O)O)N3C(=O)[C@@H](NC(=O)Cc4cccs4)C3SC2)cc1OC(C)=O (stereo partly specified)
MIC (Escherichia coli [1]): 0.5 µg/mL (≈ 0.87 µM) | MIC (Enterobacter cloacae [2]): 16 µg/mL (≈ 27.8 µM) | MIC (Citrobacter freundii [4]): 16 µg/mL (≈ 27.8 µM) | MIC (Enterobacter cloacae [7]): > 128 µg/mL | MIC (Providencia stuartii [8]): > 128 µg/mL | MIC (Providencia stuartii [9]): 64 µg/mL (≈ 111 µM) | MIC (Citrobacter freundii [10]): > 128 µg/mL | MIC (Pseudomonas aeruginosa [11]): 0.125 µg/mL (≈ 0.218 µM) | MIC (Staphylococcus aureus [18]): 0.06 µg/mL (≈ 0.104 µM) | MIC (Enterobacter cloacae [12]): 128 µg/mL (≈ 223 µM) | MIC (Pseudomonas aeruginosa [13]): > 128 µg/mL | MIC (Pseudomonas aeruginosa [14]): > 128 µg/mL | MIC (Escherichia coli [15]): 0.03 µg/mL (≈ 0.0522 µM) | MIC (Pseudomonas aeruginosa [16]): > 128 µg/mL | MIC (Pseudomonas aeruginosa [17]): > 128 µg/mL | MIC (Staphylococcus aureus [19]): 0.03 µg/mL (≈ 0.0522 µM)

CC(C)(O/N=C(\C(=O)N[C@@H]1C(=O)N2C(C(=O)O)=C(CCNC(=O)CNC(=O)c3cc(O)c(O)c(Br)c3)CSC12)c1csc(N)n1)C(=O)O (stereo partly specified)
MIC (Escherichia coli [1]): 0.015 µg/mL (≈ 0.0195 µM) | MIC (Enterobacter cloacae [2]): 0.06 µg/mL (≈ 0.0779 µM) | MIC (Enterobacter cloacae [3]): > 32 µg/mL | MIC (Citrobacter freundii [4]): 0.015 µg/mL (≈ 0.0195 µM) | MIC (Staphylococcus aureus [5]): 16 µg/mL (≈ 20.8 µM) | MIC (Staphylococcus aureus [6]): 8 µg/mL (≈ 10.4 µM) | MIC (Enterobacter cloacae [7]): 8 µg/mL (≈ 10.4 µM) | MIC (Providencia stuartii [8]): 4 µg/mL (≈ 5.19 µM) | MIC (Providencia stuartii [9]): 0.125 µg/mL (≈ 0.162 µM) | MIC (Citrobacter freundii [10]): 8 µg/mL (≈ 10.4 µM) | MIC (Pseudomonas aeruginosa [11]): 0.008 µg/mL (≈ 0.0104 µM) | MIC (Enterobacter cloacae [12]): 0.06 µg/mL (≈ 0.0779 µM) | MIC (Pseudomonas aeruginosa [13]): 0.008 µg/mL (≈ 0.0104 µM) | MIC (Pseudomonas aeruginosa [14]): 0.5 µg/mL (≈ 0.649 µM) | MIC (Escherichia coli [15]): 0.015 µg/mL (≈ 0.0195 µM) | MIC (Pseudomonas aeruginosa [16]): 0.008 µg/mL (≈ 0.0104 µM) | MIC (Pseudomonas aeruginosa [17]): 0.015 µg/mL (≈ 0.0195 µM)

CCO/N=C(\C(=O)N[C@@H]1C(=O)N2C(C(=O)O)=C(CNC(=O)c3cc(O)c(O)c(Br)c3)CSC12)c1csc(N)n1 (stereo partly specified)
MIC (Escherichia coli [1]): 0.008 µg/mL (≈ 0.0125 µM) | MIC (Enterobacter cloacae [2]): 0.015 µg/mL (≈ 0.0234 µM) | MIC (Enterobacter cloacae [3]): 128 µg/mL (≈ 200 µM) | MIC (Citrobacter freundii [4]): 0.008 µg/mL (≈ 0.0125 µM) | MIC (Enterobacter cloacae [7]): 8 µg/mL (≈ 12.5 µM) | AUC [20]: 16.97 mg/h/L | MIC (Providencia stuartii [8]): 4 µg/mL (≈ 6.24 µM) | pKa (physchem): 6.9 | MIC (Providencia stuartii [9]): 0.125 µg/mL (≈ 0.195 µM) | MIC (Citrobacter freundii [10]): 16 µg/mL (≈ 24.9 µM) | MIC (Pseudomonas aeruginosa [11]): 0.008 µg/mL (≈ 0.0125 µM) | half-life [21]: 40.2 min | MIC (Staphylococcus aureus [18]): 4 µg/mL (≈ 6.24 µM) | MIC (Enterobacter cloacae [12]): 0.03 µg/mL (≈ 0.0468 µM) | MIC (Pseudomonas aeruginosa [13]): 0.015 µg/mL (≈ 0.0234 µM) | MIC (Pseudomonas aeruginosa [14]): 4 µg/mL (≈ 6.24 µM) | MIC (Escherichia coli [15]): 0.008 µg/mL (≈ 0.0125 µM) | MIC (Pseudomonas aeruginosa [16]): 0.008 µg/mL (≈ 0.0125 µM) | MIC (Pseudomonas aeruginosa [17]): 0.06 µg/mL (≈ 0.0935 µM) | MIC (Staphylococcus aureus [19]): 2 µg/mL (≈ 3.12 µM)

From ChEMBL document CHEMBL1126299, “Synthesis and structure-activity relationships of cephalosporins with C-3' catechol-containing residues” (J Med Chem, 1992)
